Common to all, as to test: intrinsic fluorescence titration
What all share (type): binding

Experiment [1] has as its target SULT1A1 (Homo sapiens, UniProt P50225, V243G).
For experiment [2], the target named is SULT1A1 (Homo sapiens, UniProt P50225, D249S).
Experiment [3] addresses SULT1A1 (Homo sapiens, UniProt P50225, F255A).
The target of experiment [4] is SULT1A1 (Homo sapiens, UniProt P50225, I89A).
For experiment [5], the target named is SULT1A1 (Homo sapiens, UniProt P50225).
Chain of SULT1A1 (Homo sapiens, UniProt P50225) (P50225 whole entry): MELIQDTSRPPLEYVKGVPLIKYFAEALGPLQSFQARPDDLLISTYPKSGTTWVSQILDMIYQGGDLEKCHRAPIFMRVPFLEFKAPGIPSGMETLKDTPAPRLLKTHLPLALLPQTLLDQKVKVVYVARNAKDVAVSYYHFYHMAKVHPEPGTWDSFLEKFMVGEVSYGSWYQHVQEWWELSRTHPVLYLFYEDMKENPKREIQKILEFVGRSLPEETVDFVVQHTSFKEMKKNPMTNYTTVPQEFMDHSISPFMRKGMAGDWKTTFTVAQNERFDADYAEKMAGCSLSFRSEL

Chain of SULT1A1 (Homo sapiens, UniProt P50225, D249S) (P50225 whole entry D249S): as the sequence (P50225 whole entry) above, with D249S counted along it
Chain of SULT1A1 (Homo sapiens, UniProt P50225, I89A) (P50225 whole entry I89A): as the sequence (P50225 whole entry) above, with I89A counted along it
Chain of SULT1A1 (Homo sapiens, UniProt P50225, F255A) (P50225 whole entry F255A): as the sequence (P50225 whole entry) above, with F255A counted along it
Chain of SULT1A1 (Homo sapiens, UniProt P50225, V243G) (P50225 whole entry V243G): as the sequence (P50225 whole entry) above, with V243G counted along it

One may read the Kd as the equilibrium constant for the complex coming apart. For the molecule `C[C@]12CC[C@@H]3c4ccc(O)cc4CC[C@H]3[C@@H]1CC[C@@H]2O` [E2], the Kd on SULT1A1 [1] is 0.9 µM; on SULT1A1 [2], 0.9 µM; at SULT1A1 [3], 0.9 µM; at SULT1A1 [4], 1.5 µM.

For the molecule `C[C@]12CC[C@@H]3c4ccc(O)cc4C[C@@H](CCCCCCCCC[S+]([O-])CCCC(F)(F)C(F)(F)F)[C@H]3[C@@H]1CC[C@@H]2O` (stereo partly shown) [fulvestrant], the dissociation constant Kd at SULT1A1 [5] was 1.7 µM; at SULT1A1 [1], 1.3 µM; at SULT1A1 [2], 1.6 µM; at SULT1A1 [3], 1.5 µM; at SULT1A1 [4], 1.1 µM.

For `Nc1ncnc2c1ncn2[C@@H]1O[C@H](COP(=O)(O)O)[C@@H](OP(=O)(O)O)[C@H]1O` [PAP], the Kd stood at 0.27 µM at SULT1A1 [5]; 0.28 µM at SULT1A1 [1]; 0.3 µM at SULT1A1 [2]; 0.27 µM at SULT1A1 [3]; 0.31 µM at SULT1A1 [4].

On to `Oc1ccc2ccccc2c1` [2-Nap], for which the Kd at SULT1A1 [5] came to 1.5 µM; on SULT1A1 [1] it was 2.2 µM; at SULT1A1 [2], 2.2 µM; at SULT1A1 [3], 2 µM; at SULT1A1 [4], 1.8 µM.

For the origin of these results see PMC4870834 (Biochemistry, 2015).
